The results in this text go back to patent US12251407B2, “Use of Megamonas funiformis in preventing and/or treating metabolic diseases” (BGI SHENZHEN, priority 2018, dated 2025).

Marks after values point to notes of the source that are not given here.

Assay [1] concerns AF24-28AC. Briefly: Antibiotic sensitivity of AF24-28AC, drug sensitive paper method. The format is cell-based, Megamonas funiformis. The settings on record: for Diameter of inhibition zone: antibiotic susceptibility papers on AF24-28AC plates, 37° C., 48 hours; for Sensitivity of AF24-28AC to the antibiotic (resistant / sensitive): drug sensitive paper method. The method, then: The sensitivity of AF24-28AC to 20 common antibiotics was tested by the drug sensitive paper method. 100 μl of AF24-28AC bacterial solution cultured to the logarithmic phase was spread plated. Antibiotic susceptibility papers (purchased from Hangzhou Microbial Reagent Co. LTD) were affixed on the medium surface of plates, cultured at 37° C. for 48 hours, after which the size of inhibition zone was measured.

In assay [2] the test system is T2D mice model. The assay is described as follows: T2D animal model (STZ plus high-fat feed), body weight. The following applies: gavage. It counts as in vivo, C57bL/6 mice. The method, then:
(§1) The T2D animal model is constructed by using C57bL/6 mice (purchased from Guangdong Medical Experimental Animal Center) at 8 weeks old and 20±2 g of body weight. The mice are housed in a specific pathogen free (SPF) environment and adaptively fed for 1 week, followed by grouping and modeling. The T2D animal model is induced by injection of streptozotocin (STZ) along with feeding high-fat feed, and the mice having a fasting blood glucose (FBG) reaching 10 mM/L can be used as a T2D mice model. Fifty mice selected for experiments are randomly divided into 5 groups. • Model group: the T2D mice model was administered with saline solution by gavage; • Bacterial agent group 1: the T2D mice model was administered with the DSM 19343 bacterial solution (1×10^8 cfu/m1) by gavage; • Bacterial agent group 2: the T2D mice model was administered with the AF24-28AC bacterial solution (1×10^8 cfu/m1) by gavage; • Bacterial agent group 3: the T2D mice model was administered with the JCM 14723 bacterial solution (1×10^8 cfu/m1) by gavage; • Metformin treatment group: the T2D mice model was treated with the positive drug metformin.
(§2) The experiment was carried out based on the different groups. After the construction of T2D mice model (i.e., FBG>10), the treatment was started and lasted for 2 months. The food intake amount and body weight of mice were recorded daily. Blood of mice was collected from the tail vein every week for detection of fasting blood glucose. The oral glucose tolerance test (OGTT) of mice was measured at week 4 of treatment and at the end of the experiment.

Assay [3] concerns T2D mice model. The assay is described as follows: T2D animal model, fasting blood glucose. It counts as in vivo, C57bL/6 mice. The following applies: tail vein blood. As for the experimental part: as §1, §2
The test system of assay [4] is T2D mice model. The assay is described as follows: T2D animal model, oral glucose tolerance test (OGTT). The format is in vivo, C57bL/6 mice. The method, then: as §1, §2

`NCC[C@H](O)C(=O)N[C@@H]1C[C@H](N)[C@@H](O[C@H]2O[C@H](CN)[C@@H](O)[C@H](O)[C@H]2O)[C@H](O)[C@H]1O[C@H]1O[C@H](CO)[C@@H](O)[C@H](N)[C@H]1O` [Amikacin]: the “Diameter of inhibition zone” value in assay [1] stood at 2.6 cm.

Take `CC1(C)S[C@@H]2[C@H](NC(=O)[C@H](N)c3ccccc3)C(=O)N2[C@H]1C(=O)O` [Ampicillin]: the “Diameter of inhibition zone” value in assay [1] is on record as 1.0 cm.

Turning to `CC1(C)S[C@@H]2[C@H](NC(=O)C(C(=O)O)c3ccccc3)C(=O)N2[C@H]1C(=O)O` (some centres unmarked) [Carbenicillin], in assay [1], the “Diameter of inhibition zone” value is listed as 1.2 cm.

As to `CC1=C(C(=O)O)N2C(=O)[C@@H](NC(=O)[C@H](N)c3ccccc3)[C@H]2SC1` [Cefalexin], in assay [1], the “Diameter of inhibition zone” value is reported as 2.2 cm.

Take `Cc1nnc(SCC2=C(C(=O)O)N3C(=O)[C@@H](NC(=O)Cn4cnnn4)[C@H]3SC2)s1` [Cefazolin]: the “Diameter of inhibition zone” value in assay [1] was 4.0 cm.

For the molecule `CCN1CCN(C(=O)N[C@@H](C(=O)N[C@@H]2C(=O)N3C(C(=O)O)=C(CSc4nnnn4C)CS[C@H]23)c2ccc(O)cc2)C(=O)C1=O` [Cefoperazone], in assay [1], the “Diameter of inhibition zone” value was found to be 0.0 cm and the “Sensitivity of AF24-28AC to the antibiotic (resistant / sensitive)” value (“Sensitivity … (resistant / sensitive)” for short) is recorded as “resistant”.

Consider `CC1=C(C(=O)O)N2C(=O)[C@@H](NC(=O)[C@H](N)C3=CCC=CC3)[C@H]2SC1` [Cefradine], for which the “Diameter of inhibition zone” value in assay [1] amounted to 0.8 cm.

With `CO/N=C(\C(=O)N[C@@H]1C(=O)N2C(C(=O)O)=C(CSc3nc(=O)c(=O)[nH]n3C)CS[C@H]12)c1csc(N)n1` [Ceftriaxone Sodium], the “Diameter of inhibition zone” value in assay [1] is 1.0 cm.

As for `CO/N=C(\C(=O)N[C@@H]1C(=O)N2C(C(=O)O)=C(COC(N)=O)CS[C@H]12)c1ccco1` [Cefuroxime], the “Diameter of inhibition zone” value in assay [1] was 3.8 cm.

`C[C@H]1c2cccc(O)c2C(=O)C2=C(O)[C@]3(O)C(=O)C(C(N)=O)=C(O)[C@@H](N(C)C)[C@@H]3[C@@H](O)[C@@H]21` [Doxycycline]: in assay [1], the “Diameter of inhibition zone” value was 4.0 cm.

For `CC[C@H]1OC(=O)[C@H](C)[C@@H](O[C@H]2C[C@@](C)(OC)[C@@H](O)[C@H](C)O2)[C@H](C)[C@@H](O[C@@H]2O[C@H](C)C[C@H](N(C)C)[C@H]2O)[C@](C)(O)C[C@@H](C)C(=O)[C@H](C)[C@@H](O)[C@]1(C)O` [Erythromycin], the “Diameter of inhibition zone” value in assay [1] stood at 1.3 cm.

Regarding `CC(C)(O/N=C(\C(=O)N[C@@H]1C(=O)N2C(C(=O)[O-])=C(C[n+]3ccccc3)CS[C@H]12)c1csc(N)n1)C(=O)O` [Fortum (Ceftazidime), Ceftazidime], the “Diameter of inhibition zone” value in assay [1] worked out at 2.0 cm.

As to `NC[C@H]1O[C@H](O[C@H]2[C@H](O)[C@@H](O[C@H]3O[C@H](CO)[C@@H](O)[C@H](N)[C@H]3O)[C@H](N)C[C@@H]2N)[C@H](O)[C@@H](O)[C@@H]1O` [Kanamycin], in assay [1], the “Diameter of inhibition zone” value is recorded as 1.8 cm.

On to `CN(C)C(=N)N=C(N)N` [Metformin, metformin], for which the “Weight change Week 1” value in assay [2] (Week 1) was determined as 20.33 g. Moreover, the “Weight change Week 3” value in assay [2] (Week 3) was 22.36 g. For the same molecule, in assay [2] (Week 5), the “Weight change Week 5” value was determined as 24.33 g. Further, the “Weight change Week 7” value in assay [2] (Week 7) is listed as 25.86 g. Moreover, the “Weight change Week 9” value in assay [2] (Week 9, *P<0.05 relative to model group) is listed as 26.53* g. For the same molecule, in assay [3] (Week 1), the “Fasting blood glucose Week 1” value worked out at 16.9 mmol/L. Also, the “Fasting blood glucose Week 3” value in assay [3] (Week 3) is 16.0 mmol/L. In addition, the “Fasting blood glucose Week 5” value in assay [3] (Week 5) amounted to 14.3 mmol/L. Moreover, in assay [3] (Week 7), the “Fasting blood glucose Week 7” value is on record as 11.6* mmol/L. Moreover, the “Fasting blood glucose Week 9” value in assay [3] (Week 9) was 10.3** mmol/L. In addition, the “Glucose tolerance (OGTT) blood glucose 0 minute” value in assay [4] (0 minute after glucose by gavage) was found to be 9.3 mmol/L. Also, the “Glucose tolerance (OGTT) blood glucose 30 minutes” value in assay [4] (30 minutes after glucose by gavage) is listed as 19.4 mmol/L. Further, the “Glucose tolerance (OGTT) blood glucose 60 minutes” value in assay [4] (60 minutes after glucose by gavage) is on record as 16.6 mmol/L. Besides, in assay [4] (90 minutes after glucose by gavage), the “Glucose tolerance (OGTT) blood glucose 90 minutes” value is 11.7* mmol/L. For the same molecule, the “Glucose tolerance (OGTT) blood glucose 120 minutes” value in assay [4] (120 minutes after glucose by gavage) is 10.4 mmol/L.

As to `CN(C)c1ccc(O)c2c1C[C@H]1C[C@H]3[C@H](N(C)C)C(O)=C(C(N)=O)C(=O)[C@@]3(O)C(O)=C1C2=O` [Minocin (Minocycline), Minocycline], the “Diameter of inhibition zone” value in assay [1] is 4.0 cm.

On to `Cc1onc(-c2ccccc2)c1C(=O)N[C@@H]1C(=O)N2[C@@H]1SC(C)(C)[C@@H]2C(=O)O` [Oxacillin], for which, in assay [1], the “Diameter of inhibition zone” value came to 0.0 cm and the “Sensitivity … (resistant / sensitive)” value is “resistant”.

Take `CCN1CCN(C(=O)N[C@@H](C(=O)N[C@@H]2C(=O)N3[C@@H]2SC(C)(C)[C@@H]3C(=O)O)c2ccccc2)C(=O)C1=O` [Piperacillin]: in assay [1], the “Diameter of inhibition zone” value is 1.2 cm.

In the case of `CN(C)[C@@H]1C(O)=C(C(N)=O)C(=O)[C@@]2(O)C(O)=C3C(=O)c4c(O)cccc4[C@@](C)(O)[C@H]3C[C@@H]12` [Tetracycline], the “Diameter of inhibition zone” value in assay [1] came to 4.2 cm.

Turning to Gentamicin, in assay [1], the “Diameter of inhibition zone” value stood at 1.7 cm.

Take Neomycin: the “Diameter of inhibition zone” value in assay [1] is 1.3 cm.

With Penicillin, in assay [1], the “Diameter of inhibition zone” value amounted to 0.0 cm and the “Sensitivity … (resistant / sensitive)” value is on record as “resistant”.
